Converted amounts (≈) assume the structure as drawn. Read-outs that look alike come from different tables or passages of the source. Square brackets hold non-standard residues; d marks the D form. Peptide text beside a SMILES is read from it. Nspe = C[C@H](NCC(=O)O)c1ccccc1; NDecylGly = CCCCCCCCCCNCC(=O)O; Nlys = NCCCCNCC(=O)O
How the values were obtained:
[1] = tested on: C. auris CBS12373; experiment: Broth microdilution MIC; assay type: cell-based, Candida auris
[2] = tested on: ESKAPEE pathogens (all bacteria); experiment: Geometric mean MIC, therapeutic index and selectivity ratio, all bacteria; assay type: cell-based; details: across the 23 ESKAPEE strains
Procedure: (§1) Briefly, bacteria were suspended in cation-adjusted Mueller–Hinton broth (CAMHB; Oxoid, UK) for antibiotics, or MHB (Oxoid, UK) for peptidomimetics to obtain 5 × 10^5 colony forming unit (CFU) ml^−1. […] Positive controls contained only microbes, and blanks contained only media. Microbial suspensions (100 µl) were added to wells, plates wrapped, and incubated at 37°C, 120 rpm for 16–20 h. After incubation, suspensions were removed, log10 diluted, and plated on Trypticase Soya Agar with phosphatidylcholine and Tween 80 to determine minimum bactericidal or fungicidal concentration (MBC or MFC). […] Geometric mean MIC of the peptoids were calculated to evaluate the broad overview of antimicrobial activity across the pathogens.
(§2) The therapeutic indices (TIs) of the compounds were calculated with the use of following formula: […]

[3] = tested on: MBL-producing bacteria; experiment: Geometric mean MIC, therapeutic index and selectivity ratio, MBL-producing bacteria; assay type: cell-based
Procedure: as §1
The test was performed as per the manufacturer’s instructions. Briefly, the strips were applied to a lawn culture of bacteria maintained at 1.5 × 10^8 CFU ml^−1 on Mueller–Hinton agar (Oxoid, UK) and incubated for 20 h at 37°C.
as §2

[4] = tested on: C. auris strains
Procedure: as §1, §2

[5] = tested on: horse red blood cells (RBCs); experiment: Haemolysis assay; assay type: cell-based
Procedure: The haemolytic activity of the peptidomimetics was performed to determine mammalian cell safety. This assay used horse red blood cells (RBCs) (Sigma–Aldrich, USA) as described previously (Willcox et al. [2008], Chongsiriwatana et al. [2017], Yasir et al. [2019b]). RBCs were washed three times with PBS at 470 g for 5 min. Peptoids (0.5–250 μg ml^−1) were prepared in PBS and added to washed RBCs, then incubated at 37°C for 4 h. After incubation, cells were centrifuged at 1057 g for 10 min, and the supernatant’s OD at 540 nm was measured for lysis. PBS-only RBCs served as the negative control (no haemolysis), and Milli-Q water-treated RBCs as the positive control (100% lysis). Percent haemolysis was calculated as: (ODT − ODNC)/(ODPC − ODNC) × 100, where ODT, ODNC, and ODPC are the absorbances of the test, negative, and positive controls, respectively. This experiment was performed in triplicate.

[6] = tested on: K. pneumoniae JIE2709; experiment: Checkerboard microdilution synergy test; assay type: cell-based, Klebsiella pneumoniae
Procedure: (§3) Then, 10 µl of bacteria (5 × 10^6 CFU ml^−1) or C. auris (2.5 × 10^4 CFU ml^−1) were added to each well, except for the sterility control well. […] The sterility control wells contained only MHB (or RPMI in case of C. auris), and the growth control contained 110 µl of microbial inoculum with no antimicrobials. Subsequently, the plates were incubated for 18- 24 hours at 36 ± 1 °C.
(§4) The FIC for each combination interaction was calculated as follows:
(§5) Then, the summation of FIC (ƩFIC) was calculated for each antimicrobial combination as follows: ƩFIC = FICA + FICB. […] All antimicrobial synergy experiments were repeated in at least two independent runs.

[7] = tested on: K. pneumoniae JIE2713; experiment: Checkerboard microdilution synergy test; assay type: cell-based, Klebsiella pneumoniae
Procedure: as §3, §4, §5

[8] = tested on: C. auris CBS12373 biofilm; experiment: Anti-adherence (biofilm prevention), MTT reduction assay; assay type: cell-based, Candida auris
Procedure: Finally, 3-(4,5-Dimethylthiazol 2-yl)-2,5-diphenyltetrazolium bromide (MTT) reduction assay was performed to observe the metabolic activities of C. auris.

[9] = tested on: Gram-positive bacteria (Enteroc. faecalis and S. aureus)
Procedure, shortened: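 Broth microdilution with 5 × 10^5 CFU/ml inoculum in cation-adjusted Mueller–Hinton broth for antibiotics or MHB for peptidomimetics; 16–20 h at 37°C, 120 rpm. MBC/MFC by plating on Trypticase Soya Agar with phosphatidylcholine and Tween 80; geometric mean MIC calculated across pathogens.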

[10] = tested on: C. auris CBS10913
[11] = tested on: MBL phenotypes of A. baumannii; details: MBL phenotypes of
Procedure: Briefly, bacteria were suspended in cation-adjusted Mueller–Hinton broth (CAMHB; Oxoid, UK) for antibiotics, or MHB (Oxoid, UK) for peptidomimetics to obtain 5 × 10^5 colony forming unit (CFU) ml^−1. […] Positive controls contained only microbes, and blanks contained only media. Microbial suspensions (100 µl) were added to wells, plates wrapped, and incubated at 37°C, 120 rpm for 16–20 h. […] Geometric mean MIC of the peptoids were calculated to evaluate the broad overview of antimicrobial activity across the pathogens.

## CCCCCCCCCCNCC(=O)N(CCCCN)CC(=O)N(CC(=O)N(CC(=O)N(CCCCN)CC(=O)N(CC(=O)N(CC(N)=O)[C@@H](C)c1ccccc1)[C@@H](C)c1ccccc1)[C@@H](C)c1ccccc1)[C@@H](C)c1ccccc1 [TM8] (H-[NDecylGly][Nlys][Nspe][Nspe][Nlys][Nspe][Nspe]-NH2)
[1]; CBS 12 373, RPMI 1640 with MOPS, 5 × 10^3 CFU ml^−1, ≥90% reduction (≥50% for fluconazole)
  MIC against C. auris: 3.9 µg/mL
[1]; CBS12373
  MIC90: 15.6 µg/mL (≈ 14 µM)
  MIC against C. auris: 3.5 µM
[2]
  Geometric mean MIC, all bacteria: 7.3 µg/mL
[2]; value in brackets
  Geometric mean MIC, all bacteria: 6.6 µM
[3]
  Geometric mean MICMBL: 7.8 µg/mL
[4]; strains
  MIC against both C. auris strains: < 10 µg/mL
[4]; two C. auris strains
  Geometric mean MICCA: 5.5 µg/mL
[5]
  HD10 (10% haemolytic dose): 7.2 µmol/L
  HD50 (50% haemolytic dose): 24.4 µmol/L
[5]; red cells of horse, 4 h
  HD10 (10% haemolytic dose): 8 µg/mL
  HD50 (50% haemolytic dose): 27.2 µg/mL
[6]
  MIC of TM8 (alone, checkerboard): 15.625 µg/mL
[6]; TM8 with Cefotaxime
  FICTM8: 0.5
  MF of TM8 (modulation factor): 2
  Outcome: Additive (Additive if 0.5<ƩFIC ≤ 1)
  ƩFIC: 1
[6]; TM8 with Ciprofloxacin
  FICTM8: 0.5
  MF of TM8 (modulation factor): 2
  Outcome: Additive (Additive if 0.5<ƩFIC ≤ 1)
  ƩFIC: 1
[6]; TM8 with Meropenem
  FICTM8: 0.5
  MF of TM8 (modulation factor): 2
  ƩFIC: 0.625
[7]
  MIC of TM8 (alone, checkerboard): 15.625 µg/mL
[7]; TM8 with Aztreonam
  FICTM8: 0.5
  MF of TM8 (modulation factor): 2
  MIC of TM8 + DrugB: 7.8125 µg/mL
  ƩFIC: 1
[7]; TM8 with Cefotaxime
  FICTM8: 0.5
  MF of TM8 (modulation factor): 2
  ƩFIC: 1
[7]; TM8 with Ciprofloxacin
  FICTM8: 0.25
  MF of TM8 (modulation factor): 4
  ƩFIC: 0.273
[7]; TM8 with Gentamicin
  FICTM8: 0.5
  MF of TM8 (modulation factor): 2
  ƩFIC: 1
[8]
  Biofilm tolerance factor-prevention (BPC/MIC): 8
[8]; 2 h adhesion with agent, 48 h growth, ≥90% reduction
  Anti-adherence (BPC): 125 µg/mL
[9]
  MIC range: 3.9 to 7.8 µg/mL
[10]; CBS 10 913, RPMI 1640 with MOPS, 5 × 10^3 CFU ml^−1, ≥90% reduction (≥50% for fluconazole)
  MIC against C. auris: 7.8 µg/mL
[10]; CBS10913
  MIC against C. auris: 7.0 µM
  MIC at high cell density: 15.6 µg/mL (≈ 14 µM)
[11]
  MIC: ≤ 7.8 µg/mL
